Measured values published in patent US20260232666A1, “COMPOSITIONS AND METHODS FOR INHIBITION OF RAS” (TheRas, Inc., priority 2023, published 2026).
pIC50: −log10 of the molar value.

What was measured:
[1] = molecular target: T1, GDP-loaded KRAS4b (amino acids 1-169) G12C/C118S protein (Homo sapiens, UniProt P01116, C118S/G12C); assay: Covalent cysteine 12 modification by MALDI-TOF MS, GDP-loaded KRAS G12C; format: binding; conditions: 15 minutes reaction time point
T1 construct: KRAS4b (amino acids 1-169) G12C/C118S protein; made in house
Summary of the method: (§1)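 Protein (1 μM) was incubated with compound at a 1:2.5 protein:compound ratio in 20 mM HEPES, 150 mM NaCl, 1 mM MgCl2, pH 7.3, at room temperature in the dark. After 15 min, samples were mixed into sinapinic acid matrix and analysed by linear-mode MALDI-TOF. Modification is adduct peak height over summed unmodified plus adduct heights.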

[2] = molecular target: T2, GTP-loaded KRAS4b (amino acids 1-169) G12C/C118S protein (Homo sapiens, UniProt P01116, C118S/G12C); assay: Covalent cysteine 12 modification by MALDI-TOF MS, GTP-loaded KRAS G12C; format: binding; conditions: 15 minutes reaction time point
T2 construct: KRAS4b (amino acids 1-169) G12C/C118S protein; made in house
Summary of the method: as §1

[3] = molecular target: T3, Avi-KRAS G12C (1-169) GppNHp/RAF1 RBD-3×FLAG (52-151) (Homo sapiens, UniProt P01116, G12C); assay: Raf1 RBD-KRAS G12C-GppNHp disruption assay (protein:protein interaction HTRF); format: biochemical
T3 construct: Avi-KRAS G12C (1-169) GppNHp; Avi (N)
Summary of the method: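 HTRF measuring RAF1 RBD binding to GppNHp-loaded KRAS G12C (50 nM) in Tris pH 7.5, 100 mM NaCl, 5 mM MgCl2, 10% DMSO. Compound, KRAS, RBD and detection reagents each added sequentially with 1 h room-temperature incubations; 10-point titration; excitation 320 nm, emission 615 nm; activity as % of DMSO; IC50 derived.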

SMILES | GDP-KRAS G12C percent of modification [1] | GTP-KRAS G12C percent of modification [2] | pIC50 [3]
C=CC(=O)N1CC[C@@H](N(C)c2nc(OC[C@@]34CCCN3C[C@H](F)C4)nc3c(F)c(-c4ccc(F)c5sc(N)c(C#N)c45)c(Cl)cc23)[C@@H]1C (atropisomer, axis not shown) [Compound 68] | A (percent of modification ≥70%) | A (percent of modification ≥70%) | > 6.30
C=CC(=O)N1CC[C@@H](N(C)c2nc(OC[C@@]34CCCN3C[C@H](F)C4)nc3c(F)c(-c4ccc(F)c5sc(N)c(C#N)c45)c(Cl)cc23)[C@@H]1C (atropisomer, axis not shown) [Compound 69] | D (percent of modification <10%) | D (percent of modification <10%) | 5.30 to 6.30
C=CC(=O)N1CCC(N(C)c2nc(OC[C@@H]3CCCN3C3CC3)nc3c(F)c(-c4ccc(F)c5sc(N)c(C#N)c45)c(C(F)(F)F)cc23)[C@H]1C (some centres unmarked) [Compound 1] | B (50≤percent of modification <70%) | C (10%≤percent of modification <50%) | > 6.30
C=CC(=O)N1CCC(N(C)c2nc(OC[C@@]34CCCN3C[C@H](F)C4)nc3c(F)c(-c4ccc(F)c5sc(N)c(C#N)c45)c(Cl)cc23)[C@H]1CC (some centres unmarked) [Compound 2] | B (50≤percent of modification <70%) | D (percent of modification <10%) | 5.30 to 6.30
C=CC(=O)N1CCC(N(C)c2nc(OC[C@@]34CCCN3C[C@H](F)C4)nc3c(F)c(-c4ccc(F)c5sc(N)c(C#N)c45)c(C(F)(F)F)cc23)[C@H]1CC (some centres unmarked) [Compound 3] | C (10%≤percent of modification <50%) | B (50≤percent of modification <70%) | > 6.30
C=CC(=O)N1C[C@H]2C[C@@H]1CN2c1nc(OC[C@@]23CCCN2C[C@H](F)C3)nc2c(F)c(-c3ccc(F)c4sc(N)c(C#N)c34)c(C(F)(F)F)cc12 [Compound 37] | C (10%≤percent of modification <50%) | D (percent of modification <10%) | 5.30 to 6.30
C=CC(=O)N1CC[C@@H](N(CC)c2nc(OC[C@@]34CCCN3C[C@H](F)C4)nc3c(F)c(-c4ccc(F)c5sc(N)c(C#N)c45)c(C(F)(F)F)cc23)[C@H]1CC [Compound 39] | C (10%≤percent of modification <50%) | C (10%≤percent of modification <50%) | > 6.30
C=CC(=O)N1CC[C@@H](N(CC)c2nc(OC[C@@]34CCCN3C[C@H](F)C4)nc3cc(-c4ccc(F)c5sc(N)c(C#N)c45)c(C#N)cc23)[C@@H]1CC [Compound 40] | A (percent of modification ≥70%) | D (percent of modification <10%) | 5.30 to 6.30
C=CC(=O)N1CC[C@@H](N(CC)c2nc(OC[C@@]34CCCN3C[C@H](F)C4)nc3cc(-c4ccc(F)c5sc(N)c(C#N)c45)c(F)cc23)[C@@H]1CC [Compound 41] | A (percent of modification ≥70%) | D (percent of modification <10%) | 5.30 to 6.30
C=CC(=O)N1CC[C@@H](N(C)c2nc(OC[C@@]34CCCN3C[C@H](F)C4)nc3cc(-c4ccc(F)c5sc(N)c(C#N)c45)c(C#N)cc23)[C@H]1CC [Compound 42] | A (percent of modification ≥70%) | A (percent of modification ≥70%) | > 6.30
C=CC(=O)N1CC[C@@H](N(CC)c2nc(OC[C@@H]3C[C@@H](OC)CN3C)nc3c(F)c(-c4ccc(F)c5sc(N)c(C#N)c45)c(C(F)(F)F)cc23)[C@H]1C [Compound 45, 4-(4-(((2R,3R)-1-acryloyl-2-methylpyrrolidin-3-yl)(ethyl)amino)-8-fluoro-2-(((2S,4R)-4-methoxy-1-methylpyrrolidin-2-yl)methoxy)-6-(trifluoromethyl)quinazolin-7-yl)-2-amino-7-fluorobenzo[b]thiophene-3-carbonitrile] | A (percent of modification ≥70%) | B (50≤percent of modification <70%) | > 6.30
C=CC(=O)N1CC2CC(C1)N2c1nc(OC[C@@]23CCCN2C[C@H](F)C3)nc2c(F)c(-c3ccc(F)c4sc(N)c(C#N)c34)c(C(F)(F)F)cc12 [Compound 46] | C (10%≤percent of modification <50%) | D (percent of modification <10%) | 5.30 to 6.30
C=CC(=O)N1CC2CCC(C1)N2c1nc(OC[C@@]23CCCN2C[C@H](F)C3)nc2c(F)c(-c3ccc(F)c4sc(N)c(C#N)c34)c(C(F)(F)F)cc12 [Compound 49] | A (percent of modification ≥70%) | D (percent of modification <10%) | > 6.30
C=CC(=O)N1CC[C@@H](N(C)c2nc(OC[C@@H]3CCCN3C)nc3c(F)c(-c4ccc(F)c5sc(N)c(C#N)c45)c(Cl)cc23)[C@H]1C [Compound 59] | – | A (percent of modification ≥70%) | > 6.30
C=CC(=O)N1CC[C@@H](N(C)c2nc(OC[C@@H]3C[C@@H](F)CN3C)nc3c(F)c(-c4ccc(F)c5sc(N)c(C#N)c45)c(Cl)cc23)[C@H]1C [Compound 61] | – | C (10%≤percent of modification <50%) | > 6.30
C=CC(=O)N1CC[C@@H](N(C)c2nc(OC[C@@H]3CC4(CC4)CN3C)nc3c(F)c(-c4ccc(F)c5sc(N)c(C#N)c45)c(Cl)cc23)[C@H]1C [Compound 64] | – | B (50≤percent of modification <70%) | > 6.30
C=CC(=O)N1CC[C@@H](N(CC)c2nc(OC[C@@H]3CC4(CC4)CN3C)nc3c(F)c(-c4ccc(F)c5sc(N)c(C#N)c45)c(C(F)(F)F)cc23)[C@H]1C [Compound 65] | – | A (percent of modification ≥70%) | > 6.30
C=CC(=O)N1CC[C@@H](N(CC)c2nc(OC[C@@H]3CCCN3C)nc3c(F)c(-c4ccc(F)c5sc(N)c(C#N)c45)c(C(F)(F)F)cc23)[C@H]1C [Compound 66] | – | A (percent of modification ≥70%) | > 6.30
C=CC(=O)N1CC[C@@H](N(C)c2nc(OC[C@@H]3C[C@@H](OC)CN3C)nc3c(F)c(-c4ccc(F)c5sc(N)c(C#N)c45)c(Cl)cc23)[C@@H]1C [Compound 79] | – | C (10%≤percent of modification <50%) | > 6.30
C=CC(=O)N1CC[C@@H](N(C)c2nc(OC[C@@H]3CCCN3CC)nc3c(F)c(-c4ccc(F)c5sc(N)c(C#N)c45)c(Cl)cc23)[C@@H]1C [Compound 84] | – | B (50≤percent of modification <70%) | > 6.30
